Laboratory results as given in PubChem BioAssay AID179 (DTP/NCI, 2004).
pEC50, pIC50: −log10 of the molar value. Activity calls are given as the source filed them.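 How the source made its calls: active means compounds giving half or more protection of infected cells from virus-caused growth loss, again on retest; inactive means the rest.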

Test system: CEM cells HIV-1 protection, formazan growth assay
Experiment: NCI AIDS Antiviral Assay
Details: for pIC50: measured here: growth of uninfected CEM cells
Summary of the method: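 Screen of anti-HIV-1 activity in human CEM cells using a formazan-based growth measurement at five drug concentrations. Hits with 50% or greater protection were repeated, and confirmation required reproducible complete protection.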

Compound | pEC50 | pIC50 | outcome
Cc1cc(-c2ccc(N=Nc3c(S(=O)(=O)O)cc4cc(S(=O)(=O)O)cc(N)c4c3O)c(C)c2)ccc1N=Nc1c(S(=O)(=O)O)cc2cc(S(=O)(=O)O)cc(N)c2c1O | 4.46 | 3.88 | –
CC(NC(=O)OCC[P+](c1ccccc1)(c1ccccc1)c1ccccc1)C(=O)O (configuration not stated) | < 3.70 | 5.23 | –
CN(CCSSCCN(C)/N=C/c1ccccc1)/N=C/c1ccccc1 | < 3.70 | < 3.70 | –
COc1ccccc1C1OC2=C(Nc3ccccc3N2)C1=O (configuration not stated) | < 3.77 | < 3.77 | –
COC(=O)Cc1cc(OC)c(OC)cc1Br | < 3.20 | 3.29 | –
COC(=O)/C=C/c1c(=O)c(C(=O)OC)cn2cnc3nc[nH]c3c12 | < 4.30 | < 4.30 | –
O=C(CC1(O)C(=O)Nc2c(Cl)ccc(Cl)c21)c1ccc(Cl)cc1 (configuration not stated) | < 4.29 | < 4.29 | –
CC(C)(C)OC(=O)N(CCCCN(CCCNC(=O)C(F)(F)F)C(=O)OC(C)(C)C)CCCNC(=O)C(F)(F)F | – | – | inactive
CC1=C(C(=O)Nc2ccccc2C)C(c2ccc(C3C(C(=O)Nc4ccccc4C)=CNC=C3C(=O)Nc3ccccc3C)cc2)C(C(=O)Nc2ccccc2C)=C(C)N1 | – | – | inactive
COC(=O)c1ccc(C(=O)OC)c2nc3cc(Cl)ccc3nc12 | < 4.52 | < 4.52 | –
CC1=C2C(=C(CBr)OS1(=O)=O)C(=O)c1ccccc12 | < 3.13 | 4.41 | –
O=C(N1CCCC1)C1(c2cccc(Cl)c2)CCNCC1 | < 3.70 | 3.89 | –
CC1=CC(=O)C2(C)CC[C@]3(O)CCCC123 (some centres not stated) | – | – | inactive
CC(=O)NC1C(OC2C(CO)OC(OCC3OC(n4ccc(N)nc4=O)C(O)C3O)C(NC(C)=O)C2O)OC(CO)C(O)C1O (configuration not stated) | < 3.70 | 4.95 | –
Cc1cc(=O)oc2c(C)c3oc(CBr)cc3cc12 | < 3.70 | 6.35 | –
CN1CCn2c(Br)ccc2C1=O | < 2.96 | 4.19 | –
O=C1/C(=C/c2cc3c(=O)c4ccccc4sc3s2)NC(=S)N1c1ccccc1 | < 3.70 | < 3.70 | –
CC(=O)NCCSS(=O)(=O)CCCCS(=O)(=O)SCCNC(C)=O | 3.93 | 3.67 | –
CC(=O)OCC(=O)OC[C@H](OCc1ccccc1)[C@@H]1[C@H](OC(C)=O)C(=O)N1Cc1ccccc1 | < 3.70 | 3.84 | –
Cc1cc2c(c3c1c1ccccc1n3C)C(=O)C=CC2=O | < 4.44 | 5.43 | –
Fc1ccc(N=C/C=C/Nc2ccc(F)cc2)cc1 | – | – | inactive
CCOC(=O)c1cc(-c2cc(OC)c(OC)c([N+](=O)[O-])c2)c([N+](=O)[O-])n1C | < 3.70 | 4.99 | –

Compound | pEC50 | pIC50 | outcome
CCC1(C)C=Cc2c(cc(O)c3c(=O)c4ccccc4n(C)c23)O1 (configuration not stated) | < 3.70 | < 3.70 | –
NNC(=O)C1CC2c3ccccc3C1c1ccccc12 (configuration not stated) | – | – | inactive
CC1(C)OC2CC3CC(OC3=O)C2O1 (configuration not stated) | < 3.08 | < 3.08 | –
COC(=O)C12CCC(C(F)(F)C1=O)C2(C)C (configuration not stated) | < 3.70 | < 3.70 | –
CN1c2ccccc2C2=C(C(=O)CCS2)S1(=O)=O | < 4.45 | < 4.45 | –
N#CC1(C#N)C=CC(=C2OCC3CCCN23)C=C1 (configuration not stated) | – | – | inactive
C=C1CC2(OC1=O)c1ccccc1CCc1ccccc12 | < 4.44 | 5.21 | –
O=C(NC(=O)c1c(F)cccc1F)Nc1ncc(Cl)cc1Cl | < 3.70 | < 3.70 | –
O=C(Nc1ccccc1CCl)Nc1ccccc1CCl (tested in a mixture with another compound) | < 3.70 | 4.38 | –
CCCC/C=C(/CCCBr)[Si](C)(C)C | < 3.47 | < 3.47 | –
CCCNCCOc1nc(Cl)c(Cl)cc1Cl | < 3.70 | 3.90 | –
CCCCC(C(=O)CCC(=O)Nc1ccc(Cl)cc1)C(=O)C(C)C (configuration not stated) | < 3.73 | < 3.73 | –
CCc1nnc(CC)n1N1C(=O)CCC1=O | < 3.70 | < 3.70 | –
Nc1ccn(C2OC(CO)CC2F)c(=O)n1 (configuration not stated) | 6.88 | 5.15 | –
Oc1ccc2ccccc2c1-c1c(Nc2ccccc2)ccc2ccccc12 | < 4.30 | 5.05 | –
CCN(CC)C(=S)SS(=O)(=O)c1ccc(NC(C)=O)cc1 | < 3.70 | 4.96 | –
COC(=O)Cc1c(C2C(CC(=O)OC)c3ccccc3N2C2OC(CO)C(O)C(O)C2O)[nH]c2ccccc12 (configuration not stated) | 3.95 | 3.82 | –
CN(C)c1ccc(C2CC(c3ccc4ccccc4c3O)=NN2c2ccc([N+](=O)[O-])cc2[N+](=O)[O-])cc1 (configuration not stated) | < 3.82 | 4.48 | –
CC12CCC3CCCCC3(OO1)[C@@H](OCc1ccccc1)O2 (some centres not stated) | < 4.53 | < 4.53 | –
OCc1cccnc1 | < 3.70 | < 3.70 | –
CN(C)c1nc(N)nc(Nc2ccc(Br)cc2)c1N=O | < 3.70 | 4.43 | –
C/C(=N/NC(=S)N(Cc1ccccn1)Cc1ccccn1)c1cnccn1 | 6.70 | 6.47 | –

Compound | pEC50 | pIC50 | outcome
CCc1cc2c(c3c1CCCC3)CC1(Cc3ccc(C(=O)OC)cc3C1)C2 (configuration not stated) | < 3.70 | < 3.70 | –
CCOc1ccccc1NC(=O)C(=O)Cc1nc2ccccc2s1 | – | – | inactive
O=C1COC(c2ccccc2O)=NN1CCN1CCOCC1 | < 3.98 | < 3.98 | –
O=c1oc2ccccc2c2nc3c([N+](=O)[O-])cccc3cc12 | < 3.70 | 5.09 | –
COC(=O)C(C(=O)C(=O)Nc1c(Cl)cc([N+](=O)[O-])cc1Cl)c1nc2cc(C)c(C)cc2[nH]c1=O (configuration not stated) | < 4.01 | < 4.01 | –
CCCCCCCCCCCCCCCCOCC(CP(=O)([O-])OCC[n+]1ccccc1)OC (configuration not stated) | < 5.30 | 5.60 | –
O=C1CC(=O)N(c2ccccc2)N1/C(=C/c1ccccc1)c1ccccc1 | < 3.70 | 5.03 | –
N#CC(N=O)C(N)=O (configuration not stated) | < 3.70 | < 3.70 | –
O=C(CCC(=O)Nc1ccc(Cl)c(Cl)c1)CC(=O)c1ccc(F)cc1 | < 4.17 | < 4.17 | –
CN1CC2=C(NC(=S)NC2c2ccc(Cl)cc2)/C(=C/c2ccc(Cl)cc2)C1 (configuration not stated) | < 3.70 | 4.47 | –
CCOc1cn(C2OC(CO)C(O)C2O)c(=O)[nH]c1=O (configuration not stated) | < 3.06 | 3.31 | –
COc1cc2cc(c1Cl)N(C)C(=O)CC(OC(=O)C(C)N(C)C(=O)C(C)C)C1(C)OC1C(C)C1CC(O)(NC(=O)O1)C(OC)/C=C/C=C(C)C2OC (configuration not stated) | – | – | inactive
N#CCC(=O)Nc1ccccc1O | < 3.15 | < 3.15 | –
CCOC1(OCC)CS(=O)(=O)C1c1ccccc1 (configuration not stated) | < 3.18 | < 3.18 | –
Cc1oc(C)c2c1C(=O)N(C)C2=O | < 4.00 | < 4.00 | –
Cc1ccc(S(=O)(=O)c2c3[nH]c4ccccc4nc3n3c2nc2ccccc23)cc1 | < 3.92 | < 3.92 | –
CC1=NNC(=O)C1C1CC(c2c[nH]c3ccccc23)=NNC1=NCc1ccccc1 (configuration not stated) | 5.33 | 4.30 | –
C=CCC(SC)C1=C(C)C(=O)c2ccccc21 (configuration not stated) | < 3.70 | 3.96 | –
CCC(NC(C)c1ccccc1)C(=O)c1ccc(OCc2ccccc2)c(OCc2ccccc2)c1 (configuration not stated) | < 3.70 | < 3.70 | –
O=C1C=C(c2c(O)ccc3ccccc23)c2cc(O)ccc2C1=O | < 3.95 | 5.18 | –
C=CCCCCCCCCC(=O)NCC1CC1 | < 3.70 | < 3.70 | –
